Drawing on ChEMBL document CHEMBL5385907, “Proline-Hinged α-Helical Peptides Sensitize Gram-Positive Antibiotics, Expanding Their Physicochemical Properties to Be Used as Gram-Negative Antibiotics” (J Med Chem, 2024), this text covers Retention_time, MIC and MHC10 for 15 molecules.

Data set [1] is described as follows: Hydrophobicity of the compound assessed as retention time by reversed-phase HPLC analysis. Type of data set: physicochemical.
In the next data set the test system is Acinetobacter baumannii. The experiment in a line: Antibacterial activity against Acinetobacter baumannii ATCC 17978 assessed as inhibition of bacterial growth incubated for 18 hrs by two fold serial dilution assay. Type of data set: functional.
The next data set relates to Klebsiella pneumoniae. The experiment in a line: Antibacterial activity against Klebsiella pneumoniae ATCC 700603 assessed as inhibition of bacterial growth incubated for 18 hrs by two fold serial dilution assay. The format is functional.
Data set [2] can be described thus: Hemolytic activity in human blood assessed as hemolysis incubated for 6 hrs by microplate reader analysis. The format is toxicity, tissue-based.
A further data set has as its system Escherichia coli. The experiment in a line: Antibacterial activity against Escherichia coli ATCC 25922 assessed as inhibition of bacterial growth incubated for 18 hrs by two fold serial dilution assay. Type of data set: functional.

Values after ≈ are worked out from the molar mass of the structure shown. Residues, ends and D or L forms follow the SMILES beside them. A value given as a limit tells only on which side of the number the result lay.

With `CCCCCCCCCCCCCC(=O)N[C@@H](CCCCN)C(=O)N[C@@H](CCCCN)C(=O)N[C@@H](C)C(=O)N[C@@H](CC(C)C)C(=O)N[C@@H](CCCCN)C(=O)N[C@@H](CC(C)C)C(=O)N[C@@H](C)C(=O)N[C@@H](CCCCN)C(=O)N[C@@H](CCCCN)C(=O)N1CCC[C@H]1C(=O)N[C@@H](CC(C)C)C(=O)N[C@@H](CCCCN)C(=O)N[C@@H](CC(C)C)C(=O)N[C@@H](CC(C)C)C(=O)N[C@@H](CCCCN)C(N)=O` (HELM PEPTIDE1{[CCCCCCCCCCCCCC(=O)[*:2]].K.K.A.L.K.L.A.K.K.P.L.K.L.L.K.[am]}$$$$V2.0), the Retention_time in data set [1] was found to be 21.7 min. In addition, the MIC with Acinetobacter baumannii turned out to be 1.3 µM (≈ 2.51 µg/mL); in the data set with Klebsiella pneumoniae, 20 µM (≈ 38.6 µg/mL); with Escherichia coli, 5 µM (≈ 9.65 µg/mL). Moreover, in data set [2], the MHC10 came out at 53 µM.

As for Ac-KKALKLAKKPLKLLK-NH2, in data set [1], the Retention_time was 15.3 min. The MIC in the data set with Acinetobacter baumannii, with Klebsiella pneumoniae and in the data set with Escherichia coli was over 80 µM in each case. The MHC10 in data set [2] was over 160 µM.

Regarding Ac-KLLKLLKKPLKL-NH2, in data set [1], the Retention_time came out at 18 min. The MIC with Acinetobacter baumannii, in the data set with Klebsiella pneumoniae and with Escherichia coli was over 80 µM throughout. Further, the MHC10 in data set [2] is over 160 µM.

Turning to `CCCC(=O)N[C@@H](CC(N)=O)C(=O)N[C@@H](Cc1c[nH]cn1)C(=O)N[C@@H](CCCCN)C(=O)N[C@@H](CCCCN)C(=O)N[C@@H](C)C(=O)N[C@@H](CC(C)C)C(=O)N[C@@H](CCCCN)C(=O)N[C@@H](CC(C)C)C(=O)N[C@@H](C)C(=O)N[C@@H](CCCCN)C(=O)N[C@@H](CCCCN)C(=O)N1CCC[C@H]1C(=O)N[C@@H](CC(C)C)C(=O)N[C@@H](CCCCN)C(=O)N[C@@H](CC(C)C)C(=O)N[C@@H](CC(C)C)C(=O)N[C@@H](CCCCN)C(=O)N[C@@H](CS)C(N)=O` (HELM PEPTIDE1{[CCCC(=O)[*:2]].N.H.K.K.A.L.K.L.A.K.K.P.L.K.L.L.K.C.[am]}$$$$V2.0), the Retention_time in data set [1] is 16.1 min. In addition, the MIC in the data set with Acinetobacter baumannii, with Klebsiella pneumoniae and in the data set with Escherichia coli was over 80 µM in each case. Also, the MHC10 in data set [2] was over 160 µM.

Take Ac-KLLKLLKKPLKLL-NH2: the Retention_time in data set [1] worked out at 19.4 min. Besides, the MIC was 20 µM with Acinetobacter baumannii, over 80 µM with Klebsiella pneumoniae and over 80 µM with Escherichia coli. Also, in data set [2], the MHC10 was over 160 µM.

With Ac-KLLKLLKKPLKLLKKL-NH2, the Retention_time in data set [1] amounted to 19.7 min. Moreover, the MIC in the data set on Acinetobacter baumannii was 5 µM; with Klebsiella pneumoniae, 40 µM; in the data set on Escherichia coli, over 80 µM. In addition, the MHC10 in data set [2] is over 160 µM.

With `CCCCCCCCCCCCCCCC(=O)N[C@@H](CCCCN)C(=O)N[C@@H](CCCCN)C(=O)N[C@@H](C)C(=O)N[C@@H](CC(C)C)C(=O)N[C@@H](CCCCN)C(=O)N[C@@H](CC(C)C)C(=O)N[C@@H](C)C(=O)N[C@@H](CCCCN)C(=O)N[C@@H](CCCCN)C(=O)N1CCC[C@H]1C(=O)N[C@@H](CC(C)C)C(=O)N[C@@H](CCCCN)C(=O)N[C@@H](CC(C)C)C(=O)N[C@@H](CC(C)C)C(=O)N[C@@H](CCCCN)C(N)=O` (HELM PEPTIDE1{[CCCCCCCCCCCCCCCC(=O)[*:2]].K.K.A.L.K.L.A.K.K.P.L.K.L.L.K.[am]}$$$$V2.0), the Retention_time in data set [1] is 22.9 min. Also, the MIC in the data set with Acinetobacter baumannii was 1.3 µM (≈ 2.55 µg/mL); in the data set with Klebsiella pneumoniae, 10 µM (≈ 19.6 µg/mL); in the data set with Escherichia coli it was 5 µM (≈ 9.79 µg/mL). In data set [2], the MHC10 was found to be 5.9 µM.

For Ac-KLLKLLKKPLKLLKK-NH2, the Retention_time in data set [1] worked out at 18.2 min. The MIC in the data set with Acinetobacter baumannii is 20 µM; with Klebsiella pneumoniae, over 80 µM; with Escherichia coli, over 80 µM. The MHC10 in data set [2] is over 160 µM.

With `CCCCCCCCCC(=O)N[C@@H](CCCCN)C(=O)N[C@@H](CCCCN)C(=O)N[C@@H](C)C(=O)N[C@@H](CC(C)C)C(=O)N[C@@H](CCCCN)C(=O)N[C@@H](CC(C)C)C(=O)N[C@@H](C)C(=O)N[C@@H](CCCCN)C(=O)N[C@@H](CCCCN)C(=O)N1CCC[C@H]1C(=O)N[C@@H](CC(C)C)C(=O)N[C@@H](CCCCN)C(=O)N[C@@H](CC(C)C)C(=O)N[C@@H](CC(C)C)C(=O)N[C@@H](CCCCN)C(N)=O` (HELM PEPTIDE1{[CCCCCCCCCC(=O)[*:2]].K.K.A.L.K.L.A.K.K.P.L.K.L.L.K.[am]}$$$$V2.0), in data set [1], the Retention_time came to 19.4 min. The MIC is 5 µM (≈ 9.37 µg/mL) in the data set with Acinetobacter baumannii, over 80 µM in the data set on Klebsiella pneumoniae and 40 µM (≈ 74.9 µg/mL) in the data set with Escherichia coli. The MHC10 in data set [2] is over 160 µM.

Take Ac-LLKLLKKPLKLLK-NH2: the Retention_time in data set [1] came to 19.8 min. Further, the MIC in the data set with Acinetobacter baumannii, in the data set with Klebsiella pneumoniae and in the data set with Escherichia coli was over 80 µM throughout. For the same molecule, the MHC10 in data set [2] is over 160 µM.

As for `CCCCCC(=O)N[C@@H](CCCCN)C(=O)N[C@@H](CCCCN)C(=O)N[C@@H](C)C(=O)N[C@@H](CC(C)C)C(=O)N[C@@H](CCCCN)C(=O)N[C@@H](CC(C)C)C(=O)N[C@@H](C)C(=O)N[C@@H](CCCCN)C(=O)N[C@@H](CCCCN)C(=O)N1CCC[C@H]1C(=O)N[C@@H](CC(C)C)C(=O)N[C@@H](CCCCN)C(=O)N[C@@H](CC(C)C)C(=O)N[C@@H](CC(C)C)C(=O)N[C@@H](CCCCN)C(N)=O` (HELM PEPTIDE1{[CCCCCC(=O)[*:2]].K.K.A.L.K.L.A.K.K.P.L.K.L.L.K.[am]}$$$$V2.0), the Retention_time in data set [1] turned out to be 17.1 min. In addition, the MIC is 80 µM (≈ 145 µg/mL) with Acinetobacter baumannii, over 80 µM in the data set with Klebsiella pneumoniae and over 80 µM in the data set on Escherichia coli. The MHC10 in data set [2] was over 160 µM.

As for `CCCCCCCCCCCC(=O)N[C@@H](CCCCN)C(=O)N[C@@H](CCCCN)C(=O)N[C@@H](C)C(=O)N[C@@H](CC(C)C)C(=O)N[C@@H](CCCCN)C(=O)N[C@@H](CC(C)C)C(=O)N[C@@H](C)C(=O)N[C@@H](CCCCN)C(=O)N[C@@H](CCCCN)C(=O)N1CCC[C@H]1C(=O)N[C@@H](CC(C)C)C(=O)N[C@@H](CCCCN)C(=O)N[C@@H](CC(C)C)C(=O)N[C@@H](CC(C)C)C(=O)N[C@@H](CCCCN)C(N)=O` (HELM PEPTIDE1{[CCCCCCCCCCCC(=O)[*:2]].K.K.A.L.K.L.A.K.K.P.L.K.L.L.K.[am]}$$$$V2.0), the Retention_time in data set [1] is reported as 20.4 min. The MIC was determined as 2.5 µM (≈ 4.75 µg/mL) in the data set with Acinetobacter baumannii, 80 µM (≈ 152 µg/mL) with Klebsiella pneumoniae and 10 µM (≈ 19 µg/mL) in the data set with Escherichia coli. Further, the MHC10 in data set [2] was 160 µM.

On to `NCC[C@H](O)C(=O)N[C@@H]1C[C@H](N)[C@@H](O[C@H]2O[C@H](CN)[C@@H](O)[C@H](O)[C@H]2O)[C@H](O)[C@H]1O[C@H]1O[C@H](CO)[C@@H](O)[C@H](N)[C@H]1O` [AMIKACIN], for which the MIC in the data set on Acinetobacter baumannii amounted to 2.5 µM (≈ 1.46 µg/mL); in the data set on Klebsiella pneumoniae it was 2.5 µM (≈ 1.46 µg/mL); with Escherichia coli, 5 µM (≈ 2.93 µg/mL).

With Ac-LKKLLKLLKKPLKLLK-NH2, the Retention_time in data set [1] came out at 20.1 min. Also, the MIC in the data set on Acinetobacter baumannii was 1.3 µM; in the data set with Klebsiella pneumoniae, 2.5 µM; in the data set on Escherichia coli, over 10 µM. For the same molecule, the MHC10 in data set [2] turned out to be 53 µM.

Take Ac-LKLLKKPLKLLK-NH2: the Retention_time in data set [1] is on record as 18 min. Moreover, the MIC in the data set with Acinetobacter baumannii, with Klebsiella pneumoniae and in the data set with Escherichia coli was over 80 µM each time. The MHC10 in data set [2] is over 160 µM.

The MIC is the lowest concentration found to suppress growth.
